Assay results from patent US6369049B1, “Treatment of mastitis” (Eli Lilly and Company, priority 1998, dated 2002).
Marks after values point to notes of the source that are not given here.

Legend:
[1] = test system: Staphylococcus aureus 10092 (Newbould strain); assay: MIC vs. S. aureus 10092 (Newbould strain); assay type: cell-based; design: unit not given beside the values; conditions: for MIC vs. S. aureus 10092: Table 2, incubated at 37° C. overnight; for MIC vs. Staphylococcus aureus 10,092: Table 2a
Source text: (§1) Tables 2 and 2a summarize the minimal inhibitory concentrations (MIC's) at which illustrative formula I compounds and cephalothin inhibit certain microorganisms that are associated with mastitis, such as Staphylococcus aureus 10092 (Newbould strain).

S. aureus 174 C = assay: MIC vs. S. aureus 174 C; assay type: cell-based, Staphylococcus aureus; design: unit not given beside the values; conditions: Incubated at 37° C. overnight
Source text: as §1

S. aureus F1C = assay: MIC vs. S. aureus F1C; assay type: cell-based, Staphylococcus aureus; design: unit not given beside the values; conditions: Incubated at 37° C. overnight
Source text: as §1

[2] = test system: Streptococcus uberis 166 L; assay: MIC vs. Streptococcus uberis 166 L; assay type: cell-based; design: unit not given beside the values; conditions: Incubated at 37° C. overnight
Source text: as §1

S. aureus ATCC 29213 = assay: MIC vs. S. aureus ATCC 29213; assay type: cell-based, Staphylococcus aureus; design: unit not given beside the values; conditions: Incubated at 37° C. overnight
Source text: as §1

[3] = test system: Streptococcus dysgalactiae; assay: MIC vs. Streptococcus dysgalactiae; assay type: cell-based; design: unit not given beside the values; conditions: Incubated at 37° C. overnight
Source text: as §1

[4] = test system: Streptococcus agalactiae 150 B; assay: MIC vs. Streptococcus agalactiae 150 B; assay type: cell-based; design: unit not given beside the values; conditions: Incubated at 37° C. overnight
Source text: as §1

[5] = test system: Streptococcus uberis 150 L; assay: MIC vs. Streptococcus uberis 150 L; assay type: cell-based; design: unit not given beside the values; conditions: Incubated at 37° C. overnight
Source text: as §1

[6] = test system: Pasteurella multocida 1051 (swine); assay: MIC vs. Pasteurella multocida 1051 (swine); assay type: cell-based; conditions: Incubated at 37° C. overnight
Source text: (§2) The formula I compounds are also active against certain Gram-negative species. Tables 3 and 3a show the MIC's of Formula I compounds against certain Gram-negative species.

Salmonella typhimurium = assay: MIC vs. Salmonella typhimurium; assay type: cell-based; conditions: Incubated at 37° C. overnight
Source text: as §2

[7] = test system: Pasteurella multocida 10,102 (bovine); assay: MIC vs. Pasteurella multocida 10,102 (bovine); assay type: cell-based; conditions: Incubated at 37° C. overnight
Source text: as §2

[8] = test system: Pasteurella multocida ATCC 12945; assay: MIC vs. Pasteurella multocida ATCC 12945; assay type: cell-based; conditions: Incubated at 37° C. overnight
Source text: as §2

[9] = test system: Pasteurella haemolytica 129R (bovine); assay: MIC vs. Pasteurella haemolytica 129R (bovine); assay type: cell-based; conditions: Incubated at 37° C. overnight
Source text: as §2

Escherichia coli = assay: MIC vs. Escherichia coli; assay type: cell-based; design: unit not given beside the values; conditions: Incubated at 37° C. overnight
Source text: as §2

[10] = test system: Staphylococcus aureus 10092 (Newbould); assay: Induced Staphylococcus aureus mastitis model in lactating goats; assay type: in vivo; conditions: S. aureus 10092 challenge, in peanut oil
Source text: Sixteen lactating goats were selected based on the absence of Staphylococcus aureus in pre-challenge milk cultures. Maintenance ration was provided to the animals throughout the study. The goats were milked twice each day using a portable goat milker.
Milk samples were collected during the morning milking. One day prior to challenge, milk culture samples were collected from each half of the test animals to determine if there was a pre-existing infection. Additionally, a sample was collected from each half for Somatic Cell Count (SCC) determination. A milk culture sample and a sample for SCC were collected from each half 24 hours post-challenge and on Days +4 to +6, +8, +11, +13, and +15.
Udder scoring was performed during each milking using the following table:
General health observations and body temperature were recorded once a day following milking during the challenge and treatment periods.
Milk samples were submitted for analysis for SCC using an electronic somatic cell counting system.
Milk culture samples were assayed for bacterial culture by plating 1.0 mL and 0.1 mL of the milk sample directly onto duplicate blood agar plates. Additionally, dilutions […] the milk sample were plated. Plates were incubated overnight at 37° C.
Staphylococcus aureus 10092 (Newbould) was used as the challenge strain. The challenge culture was grown in Tryptic Soy Broth (TSB) from a lyovial stock overnight (16 hours) at 37° C. TSB (100 mL) was inoculated with 1 mL of the overnight culture and incubated at 37° C. with shaking for 4 hours. The culture was centrifuged at 9000 rpm for 10 minutes at 10° C.; supernatant was removed and the pellet was resuspended in phosphate buffered saline (PBS). Optimum O.D. reading at 650 nm was approximately 0.035. A 10-fold dilution series was prepared with saline to determine the CFU/mL, plating 10^−5, 10^−6, and 10^−7 dilutions onto duplicate blood agar plates. The 10^−7 dilution (approximately 10 CFU/mL) was used for the challenge material, yielding a challenge of 50 CFU/half with a 5-mL infusion.
Sixteen goats were used for the trial. During a one day pre-challenge period, milk samples were collected and temperatures were taken during the morning milking. Milk/udder evaluations were documented during the morning and afternoon milkings.
Staphylococcus aureus 10092 was infused into both halves in each of the goats. The goats were challenged following the morning milking and milked in the afternoon on the day of challenge. The challenge inoculum volume was 5 mL/half containing approximately 50 CFU S. aureus.
For the 24 hr post-challenge period milk samples were collected during the morning milking, and milk/udder evaluations made during the morning and afternoon milking.
Treatment was started at 36 hours post-challenge. Milk samples were collected for culture and SCC 24 hours post-challenge, prior to the morning milking, and the treatment period started following the afternoon milking.
Eight halves (4 goats) each were treated for 2 consecutive milkings 12 hours apart, following milking. […]
Following treatment, the goats were milked and observed for 15 days. Milk samples were collected on Days +4 to +6, +8, +11, +13, and +15 to determine if the infection had cleared.
Establishment of mastitis was determined by bacterial culturing, severity of udder scoring, somatic cell count results, and body temperature.
On Days +2 to +6, milk samples were collected for a colorimetric assay to determine whether the antibiotic was still present in the milk.

[11] = test system: Pasteurella haemolytica 114F (bovine); assay: MIC vs. Pasteurella haemolytica 114F (bovine); assay type: cell-based; conditions: Incubated at 37° C. overnight
Source text: as §2

[12] = test system: Pasteurella haemolytica 128K (bovine); assay: MIC vs. Pasteurella haemolytica 128K (bovine); assay type: cell-based; conditions: for MIC against Pasteurella haemolytica Strain 128K: Table 3a, incubated at 37° overnight
Source text: as §2

[13] = test system: Pasteurella multocida 108E (bovine); assay: MIC vs. Pasteurella multocida 108E (bovine); assay type: cell-based; conditions: Incubated at 37° C. overnight
Source text: as §2

[14] = test system: Streptococcus uberis 167I; assay: MIC vs. Streptococcus uberis 167I; assay type: cell-based; design: unit not given beside the values; conditions: Table 2a
Source text: as §1

[15] = test system: Streptococcus agalactiae 150G; assay: MIC vs. Streptococcus agalactiae 150G; assay type: cell-based; design: unit not given beside the values; conditions: Table 2a
Source text: as §1

Streptococcus faecalis = assay: MIC vs. Streptococcus faecalis; assay type: cell-based; design: unit not given beside the values; conditions: Table 2a
Source text: as §1

[16] = test system: Staphylococcus epidermidis 174B; assay: MIC vs. Staphylococcus epidermidis 174B; assay type: cell-based; design: unit not given beside the values; conditions: Table 2a
Source text: as §1

[17] = test system: Streptococcus dysgalactiae 152B; assay: MIC vs. Streptococcus dysgalactiae 152B; assay type: cell-based; design: unit not given beside the values; conditions: Table 2a
Source text: as §1

[18] = test system: Staphylococcus aureus 168H; assay: MIC vs. Staphylococcus aureus 168H; assay type: cell-based; design: unit not given beside the values; conditions: Table 2a
Source text: as §1

[19] = test system: Staphylococcus aureus 170C; assay: MIC vs. Staphylococcus aureus 170C; assay type: cell-based; design: unit not given beside the values; conditions: Table 2a
Source text: as §1

[20] = approximately 25 mg/5 mL dose per half, 2 consecutive milkings 12 hours apart

SMILES	MIC vs. Staphylococcus aureus 10,092 [1]	MIC vs. Streptococcus uberis 167I [14]	MIC vs. Streptococcus agalactiae 150G [15]	% Bacteriologic Cures [10, 20] [%]	MIC vs. Streptococcus faecalis (Streptococcus faecalis)	MIC vs. Staphylococcus epidermidis 174B [16]	MIC against Pasteurella haemolytica Strain 128K [12]	MIC vs. Streptococcus dysgalactiae 152B [17]	MIC vs. Staphylococcus aureus 168H [18]	MIC vs. Staphylococcus aureus 170C [19]	other results
O=C(Cc1c(F)c(F)c(F)c(F)c1F)NC1C(=O)N2C(C(=O)O)=C(Cl)CSC12 (centres unmarked) [Compound 4]											MIC vs. S. aureus 10092 [1]: 0.5; MIC vs. S. aureus 174 C (S. aureus 174 C): 1; MIC vs. S. aureus F1C (S. aureus F1C): 1; MIC vs. Streptococcus uberis 166 L [2]: 0.0156; MIC vs. S. aureus ATCC 29213 (S. aureus ATCC 29213): 1; MIC vs. Streptococcus dysgalactiae [3]: 0.0312; MIC vs. Streptococcus agalactiae 150 B [4]: 0.5; MIC vs. Streptococcus uberis 150 L [5]: 0.5
O=C(COc1c(F)c(F)c(F)c(F)c1F)NC1C(=O)N2C(C(=O)O)=C(Cl)CSC12 (centres unmarked) [Compound 1]											MIC vs. Pasteurella multocida 1051 (swine) [6]: 0.5; MIC vs. S. aureus 10092 [1]: 0.25; MIC vs. S. aureus 174 C (S. aureus 174 C): 0.5; MIC vs. Salmonella typhimurium (Salmonella typhimurium): >128; MIC vs. Pasteurella multocida 10,102 (bovine) [7]: 0.5; MIC vs. S. aureus F1C (S. aureus F1C): 0.5; MIC vs. Pasteurella multocida ATCC 12945 [8]: 0.125; MIC vs. Pasteurella haemolytica 129R (bovine) [9]: 4; MIC vs. Escherichia coli (Escherichia coli): >128; MIC vs. Streptococcus uberis 166 L [2]: 0.25; MIC vs. S. aureus ATCC 29213 (S. aureus ATCC 29213): 0.5; MIC vs. Streptococcus dysgalactiae [3]: 0.125; % Bacteriologic Cures ([10]; dosing was 100 mg/5 mL dose): 75* %; MIC vs. Streptococcus agalactiae 150 B [4]: 0.125; MIC vs. Pasteurella haemolytica 114F (bovine) [11]: 4; MIC vs. Pasteurella haemolytica 128K (bovine) ([12]; Table 3, incubated at 37° C. overnight): 4; MIC vs. Streptococcus uberis 150 L [5]: 0.25; MIC vs. Pasteurella multocida 108E (bovine) [13]: 0.5
O=C(COc1c(F)c(F)c(F)c(F)c1F)NC1C(=O)N2C(C(=O)O)=C(Cl)CCC12 (centres unmarked) [Compound 7]	4	128	2	13	>128	2	32	2	16	1	
O=C(COc1c(F)cc(F)cc1F)NC1C(=O)N2C(C(=O)O)=C(Cl)CSC12 (centres unmarked) [Compound 5]	1	16	1	100	16	1	16	0.5	2	4	
O=C(COc1ccc(OC(F)(F)F)cc1)NC1C(=O)N2C(C(=O)O)=C(Cl)CSC12 (centres unmarked) [Compound 8]	1	128	1	50	64	1	32	0.5	1	<0.125	
O=C(COc1cc(F)cc(F)c1)NC1C(=O)N2C(C(=O)O)=C(Cl)CSC12 (centres unmarked) [Compound 6]	0.5	32	0.5	75	32	0.5	4	0.25	2	4	
O=C(COc1c(F)c(F)c(C(F)(F)F)c(F)c1F)NC1C(=O)N2C(C(=O)O)=C(Cl)CSC12 (centres unmarked) [Compound 10]				57							
O=C(CSc1c(F)c(F)c(F)c(F)c1F)NC1C(=O)N2C(C(=O)O)=C(Cl)CSC12 (centres unmarked) [Compound 9]	0.5	4	0.5	63	8	0.5	4	0.5	0.5	0.5	
